Results on 32 compounds are retold here after publication PMC5430599, “Antiplasmodial dihetarylthioethers target the coenzyme A synthesis pathway in Plasmodium falciparum erythrocytic stages” (Malaria Journal, 2017).

Experiment [1] deals with Plasmodium falciparum parasites (3D7 strain). Put plainly: Coenzyme A rescue assay (imaging-based growth inhibition, with or without 0.8 mM CoA). It counts as cell-based. As to conditions: for rescue by coenzyme A supplementation (in words): 0.8 mM CoA; for IC50 shift with CoA supplementation: IC50 CoA / IC50 solvent; for IC50-ratio (CoA/solvent): IC50 with 0.8 mM CoA / IC50 solvent, threshold 5× significant; for IC50: Plasmodium falciparum, 3D7, 72 h. The method, then: Plasmodium falciparum parasites (3D7 strain) were grown in RPMI 1640 supplemented with 25 mM HEPES, 5 mg/mL Albumax II, and 0.37 mM hypoxanthine. Parasites were subjected to two rounds of sorbitol synchronization before undergoing compound treatment. Ring stage parasites were exposed to the experimental compounds alone, or in combination with 0.8 mM coenzyme A (CoA) in 384-wells imaging microplates (CellCarrier, PerkinElmer), as previously described. […] Puromycin 5 µM and untreated solvent were used as in-plate positive and negative controls, respectively. Samples were dissolved in DMSO to a final assay DMSO concentration of 0.4%. […] All sample and control wells contained the same final amounts of solvents. Plates were incubated for 72 h at 90% N2, 5% CO2, 5% O2, then parasites were stained with 2-(4-amidinophenyl)-1H-indole-6-carboxamidine (DAPI), and imaged using an Opera QEHS micro-plate confocal imaging system (PerkinElmer) with 405 nm excitation and 450/50 emission filter, using a 20× water immersion objective. Images were analysed as previously described, to obtain normalized % inhibition data, which were then used to calculate IC50 values, through a four parameter logistic curve fitting in GraphPad Prism v.6. The experiment was carried out in two independent biological replicates, each consisting of two technical replicates. Dose–response curves are illustrated in the Additional file 4.

In experiment [2] the test system is human embryonic kidney (HEK-293) cells. Put plainly: Cytotoxicity assay: human HEK-293 cell line (resazurin). It counts as cell-based. The settings on record: Homo sapiens, read-out: IC50 [µM], HEK-293. The method, then: Cytotoxicity against human embryonic kidney (HEK-293) cells was assessed as previously described. […] Cells were detached using Accutase treatment, then seeded into black clear-bottom 384-wells fluorescence microplates (Greiner), at a cell density of 44,000 cells/mL in 45 µL/well, using a Benchtop liquid dispenser (Thermo Fisher Multidrop). After seeding, the cells were brought back to the incubator and allowed to settle and reattach overnight. […] Plates were incubated at the standard condition above for 72 h. At the end of the incubation the medium in each well was replaced with 1 mM resazurin, and the plates were read using a multilabel microplate reader (PerkinElmer Envision) at 530 nm excitation and 595 nm emission wavelengths after a further 6 h incubation. Inhibition data was generated using Office Excel 2013 (Microsoft). IC50 values were calculated by fitting a four-parameter nonlinear regression model using Prism v.6.0 (Graphpad Software Inc., La Jolla, CA, USA).

Another experiment relates to Plasmodium falciparum. Also on record: method as in PMID 27855724. The settings on record: addition of pantethine; cited from earlier work.
The subject of experiment [3] is asexual erythrocytic stages of transgenic NF54-luc P. falciparum. Put plainly: Luciferase-based viability screening for anti-malarial activity. It counts as cell-based, Plasmodium falciparum. As to conditions: for % inhibition, PfNF54-Luc at 3 µM: 48 h; for % inhibition, PfNF54-Luc at 3 µM / inhibition at 3 µM: >50% inhibition of viability rated active; for inhibition at 3 µM: read-out: % inhibition, PfNF54-Luc at 3 µM, 3 µM, 48 h. The method, then:
Asexual erythrocytic stages of transgenic NF54-luc P. falciparum were used for the luciferase-based viability assay. These parasites constitutively express high levels of luciferase. The parasites were cultured as described previously. Parasite culture with parasitaemia of 0.5–1% was dispensed in triplicate into white 96-well flat-bottom plates (each well contains 250 µL) (NUNC, Roskilde, […], 90% N2, 5% CO2, and 5% O2). 0.01% DMSO was included in the untreated infected RBC cultures as negative control, since the compounds stock initially was diluted in DMSO and each treatment well also contained 0.01% DMSO. Subsequently, 100 µL RPMI1640 media was removed from each well and a 100 µL volume of the Bright-Glo® substrate solution added to each well. The resultant cleavage product of the reaction, light, was measured using a FLUOROSKAN FL luminometer (Thermo), to ascertain viable parasites. Untreated cultures were used as negative controls and to calculate the inhibition rate (0% inhibition of parasite growth). Blasticidin (Sigma-Aldrich, St. Louis, MO, USA), used for selection of transfected parasites, was included as a positive control on each plate and gave >90% inhibition of parasite growth at concentration 2 µg/mL. Compounds with >50% inhibition of viability were rated as actives. Experiments were performed in triplicate and were repeated at least twice.

The next experiment deals with Plasmodium berghei. Set-up: method as in PMID 24900512. The settings on record: 50 mg/kg subcutaneously over 4 days; cited from earlier work.
Where [4] appears, read: 0.8 mM CoA (rescue), 72 h, read-out: IC50 [µM], Pf3D7 + 0.8 mM CoA.
[5] abbreviates: no CoA (solvent, non-rescue), 72 h, read-out: IC50 [µM], Pf3D7 + solvent.
[6] abbreviates: Plasmodium falciparum, NF54, 48 h.

Where two headings read alike, the source gives them in different places. Some results are limits rather than exact numbers.

On to `Cc1csc(Sc2ncnc3sccc23)n1` [Amb180780, reference compound], for which the “rescue by coenzyme A supplementation (in words)” value (“rescue … (in words)” for short) in experiment [1] is “rescued”. Also, the “IC50 shift with CoA supplementation” value in experiment [1] is on record as > 13 fold. Besides, the “IC50-ratio (CoA/solvent)” value in experiment [1] stood at 40.8. For the same compound, the IC50 is 1.51 ± 0.19 µM in experiment [1] (setting [4]); 0.037 ± 0.0017 µM in experiment [1] (setting [5]); > 40 µM in experiment [2] (HEK293, cytotoxicity, 72 h). Further, the “rescue of activity by pantethine, dephospho CoA and CoA” value in the experiment on Plasmodium falciparum is “more than 75%”.

Take `C[C@@H]1CC[C@H]2[C@@H](C)C(=O)O[C@@H]3O[C@@]4(C)CC[C@@H]1[C@]32OO4` [Artemis, artemisinin, reference compound]: the “rescue … (in words)” value in experiment [1] is listed as “not rescued”. The IC50 in experiment [1] (setting [4]) turned out to be 0.0049 ± 0.0011 µM; in experiment [1] (setting [5]), 0.00337 ± 0.00065 µM.

Consider `CN(CC[C@H](N)CC(=O)N[C@H]1C=C[C@H](n2ccc(N)nc2=O)O[C@@H]1C(=O)O)C(=N)N` [BS, Blasticidin, reference compound], for which the “inhibition of parasite growth (positive control)” value in experiment [3] (2 µg/mL) is listed as > 90%. In addition, the “% inhibition, PfNF54-Luc at 3 µM” value in experiment [3] is given as 99.3 ± 0.7%.

On to `CCN(CC)CCCC(C)Nc1ccnc2cc(Cl)ccc12` (stereo not shown) [Chloroqu, Chloroquine, reference compound], for which the “rescue … (in words)” value in experiment [1] is “not rescued”. Also, the “IC50-ratio (CoA/solvent)” value in experiment [1] amounted to 1.39. In addition, the IC50 is 0.0271 ± 0.0094 µM in experiment [1] (read-out: IC50 [µM], Pf3D7 + 0.8 mM CoA); 0.0195 ± 0.0034 µM in experiment [1] (read-out: IC50 [µM], Pf3D7 + solvent); > 40 µM in experiment [2] (HEK293, 72 h).

For `COc1ccc(-c2nnc(Sc3ncnc4sccc34)o2)cc1` [Compound 3c], the inhibition at 30 µM in experiment [3] (Plasmodium falciparum, NF54, 48 h, read-out: % inhibition, PfNF54-Luc at 30 µM, 30 µM, 48 h) was < 50%.

For the compound `CCN(CC)S(=O)(=O)c1ccc(-c2nnc(Sc3ncnc4sccc34)o2)cc1` [Compound 3d], the inhibition at 3 µM in experiment [3] (setting [6]) is -0.6 ± 5.4%.

With `O=S(=O)(c1ccc(-c2nnc(Sc3ncnc4sccc34)o2)cc1)N1CCCCC1` [Compound 3e], the inhibition at 3 µM in experiment [3] (setting [6]) is -7.3 ± 6.9%.

For `Clc1ccccc1-c1nnc(Sc2ncnc3sccc23)o1` [Compound 3f], in experiment [3] (setting [6]), the inhibition at 3 µM turned out to be 1.5 ± 4.3%.

On to `Brc1ccccc1-c1nnc(Sc2ncnc3sccc23)o1` [Compound 3g], for which the inhibition at 3 µM in experiment [3] (setting [6]) was -13.1 ± 9.1%.

As for `CC1CCc2sc(-c3nnc(Sc4ncnc5sccc45)o3)cc2C1` (stereo not shown) [Compound 3h], the inhibition at 3 µM in experiment [3] (setting [6]) was -103 ± 4.4%.

Turning to `c1cncc(-c2nnc(Sc3ncnc4sccc34)o2)c1` [Compound 3i], the inhibition at 3 µM in experiment [3] (setting [6]) was -5.5 ± 3.8%.

Regarding `Cc1ccc(-c2nnc(Sc3ncnc4sccc34)o2)cc1` [Compound 3j], the inhibition at 3 µM in experiment [3] (setting [6]) is -11 ± 6.7%.

Take `CCc1ccc(-c2nnc(Sc3ncnc4sccc34)o2)cc1` [Compound 3k]: the inhibition at 3 µM in experiment [3] (setting [6]) is -7 ± 1.8%.

With `O=S(=O)(c1ccc(-c2nnc(Sc3ncnc4sccc34)o2)cc1)N1CCOCC1` [Compound 3l], the inhibition at 3 µM in experiment [3] (setting [6]) stood at 24.3 ± 3.2%.

Regarding `Fc1ccc(-c2nnc(Sc3ncnc4sccc34)o2)cc1` [Compound 3m], the inhibition at 3 µM in experiment [3] (setting [6]) is -8.3 ± 4.1%.

Turning to `CC(C)(C)OC(=O)N1CCC(c2nnc(Sc3ncnc4sccc34)o2)CC1` [Compound 3n], in experiment [3] (setting [6]), the inhibition at 3 µM was -0.82 ± 3.11%.

In the case of `CC(C)(C)OC(=O)NCc1nnc(Sc2ncnc3sccc23)o1` [Compound 3o], in experiment [3] (setting [6]), the inhibition at 3 µM was found to be 2.28 ± 3.31%.

Regarding `CC(C)(C)c1nnc(Sc2ncnc3sccc23)o1` [Compound 3p], in experiment [3] (setting [6]), the inhibition at 3 µM was -14.6 ± 12.9%.

Regarding `OCc1nnc(Sc2ncnc3sccc23)o1` [Compound 3q], in experiment [3] (setting [6]), the inhibition at 3 µM is -12.3 ± 2.2%.

For the compound `c1nc(Sc2nnc(C3CCNCC3)o2)c2ccsc2n1` [Compound 3r], in experiment [3] (setting [6]), the inhibition at 3 µM was found to be 7.7 ± 1.8%.

Consider `NCc1nnc(Sc2ncnc3sccc23)o1` [Compound 3s], for which the inhibition at 3 µM in experiment [3] (setting [6]) is -2.8 ± 16.6%.

With `c1coc(-c2nnc(Sc3ncnc4[nH]ccc34)o2)c1` [Compound 6a], in experiment [3] (setting [6]), the inhibition at 3 µM is -24.8 ± 13.6%.

On to `c1coc(-c2nnc(Sc3ncnc4[nH]cnc34)o2)c1` [Compound 6b], for which the inhibition at 3 µM in experiment [3] (setting [6]) is 1.79 ± 2.53%.

Regarding `N#Cc1nccnc1Sc1nnc(-c2ccco2)o1` [Compound 6c], the inhibition at 3 µM in experiment [3] (setting [6]) came out at 0.98 ± 1.52%.

In the case of `c1coc(-c2nc(Sc3ncnc4sccc34)n[nH]2)c1` [Compound 8a], the “% inhibition, PfNF54-Luc at 3 µM” value in experiment [3] came out at 33.2 ± 6.8%. Also, in experiment [3] (setting [6]), the inhibition at 3 µM turned out to be 33%. The IC50 in experiment [1] (setting [4]) was 16.1 ± 2.2 µM; in experiment [1] (setting [5]), 10.5 ± 1.1 µM; in experiment [2] (HEK293, cytotoxicity, 72 h), > 40 µM.

On to `Cn1cnnc1Sc1ncnc2sccc12` [Compound 8b], for which the “% inhibition, PfNF54-Luc at 3 µM” value in experiment [3] was “inactive”. The inhibition at 3 µM in experiment [3] (setting [6]) came out at 4.7 ± 2.6%. Further, in experiment [1], the “rescue … (in words)” value was “significantly rescued”, the “IC50 shift with CoA supplementation” value is reported as “sevenfold” and the “IC50-ratio (CoA/solvent)” value stood at 7.39. The IC50 in experiment [1] (setting [4]) is ~40 µM. Besides, in experiment [1] (setting [5]), the IC50 stood at 6.4 ± 4.3 µM. Also, the IC50 in experiment [2] (HEK293, cytotoxicity, 72 h) is > 40 µM.

As to `Cc1ccc2nc(Sc3ncnc4sccc34)[nH]c2c1` [Compound 8h], the “% inhibition, PfNF54-Luc at 3 µM” value in experiment [3] was “inactive”. The inhibition at 3 µM in experiment [3] (setting [6]) is -1.9 ± 5.3%.

As to `Clc1ccc2[nH]c(Sc3ncnc4sccc34)nc2c1` [Compound 8i], the “% inhibition, PfNF54-Luc at 3 µM” value in experiment [3] was “inactive”. For the same compound, the inhibition at 3 µM in experiment [3] (setting [6]) was -18.4 ± 10.6%.

As for `COc1ccc2[nH]c(Sc3ncnc4sccc34)nc2c1` [Compound 8j], in experiment [3], the “% inhibition, PfNF54-Luc at 3 µM” value is “inactive”. Moreover, the inhibition at 3 µM in experiment [3] (setting [6]) is -36.3 ± 10.6%.

As for `CC(C)(CO)C(O)C(=O)NCCCO` (stereo not shown) [Pantoth, panthenol, reference compound], the “rescue … (in words)” value in experiment [1] is “rescued”. Besides, in experiment [1] (setting [5]), the IC50 was determined as 752 ± 82 µM.

In the case of `COc1ccc(C[C@H](N)C(=O)N[C@H]2[C@@H](O)[C@H](n3cnc4c(N(C)C)ncnc43)O[C@@H]2CO)cc1` [Puromyc, puromycin, reference compound], in experiment [1], the “rescue … (in words)” value is recorded as “not rescued” and the “IC50-ratio (CoA/solvent)” value turned out to be 2.78. The IC50 in experiment [1] (setting [4]) is 0.0939 ± 0.0016 µM. Further, the 50% inhibitory concentration (IC50) in experiment [2] (HEK293, cytotoxicity, 72 h) is 0.36 µM.

With `c1ccn2c(Sc3ncnc4sccc34)nnc2c1` [compound 33], in the experiment with Plasmodium berghei, the drop in parasitaemia is reported as 34% and the “life-span of infected animals” value is “failed to prolong the life-span”.
